One test addresses T1, human recombinant GPR65 (Homo sapiens, UniProt Q8IYL9).
T1 construct: host or cells: 1321N1 human astrocytoma cells (1321N1-hrGPR65)
The test is described as follows: Human GPR65 cAMP HTRF antagonist assay. The class given is cell-based.
Conditions: not given
In outline:
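1321N1 astrocytoma cells stably expressing GPR65 were preincubated with compound for 30 min at room temperature in KRH pH 7.6 with 1 mM IBMX and 200 μM EDTA. They were then stimulated at assay pH 7.2 for 30 min, with controls at pH 7.9. cAMP was read by HTRF (665/620 nm), normalised to controls and fitted by 4-parameter logistic to give IC50.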
On the technique in general: In TR-FRET formats the signal depends on donor and acceptor labels being close together.
T1 sequence (Q8IYL9 whole entry): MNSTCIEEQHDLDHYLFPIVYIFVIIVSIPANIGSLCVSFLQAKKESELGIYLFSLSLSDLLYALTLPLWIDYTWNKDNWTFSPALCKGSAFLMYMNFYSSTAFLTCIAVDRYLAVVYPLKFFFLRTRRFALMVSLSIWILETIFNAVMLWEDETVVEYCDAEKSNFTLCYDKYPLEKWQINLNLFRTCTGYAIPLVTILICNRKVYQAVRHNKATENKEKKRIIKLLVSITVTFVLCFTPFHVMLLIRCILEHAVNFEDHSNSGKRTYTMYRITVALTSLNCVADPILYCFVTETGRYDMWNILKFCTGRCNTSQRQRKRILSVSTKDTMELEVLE
A word on the IC50: it is the concentration at which inhibition is half-maximal. With `O=C(Nc1ccc(C(F)(F)F)c(Cl)c1)N1[C@H]2CC[C@@H]1c1cncnc1C2` [Compound 38, (5R,8S)-N-(3-Chloro-4-(trifluoromethyl)phenyl)-6,7,8,9-tetrahydro-5H-5,8-epiminocyclohepta[d]pyrimidine-10-carboxamide], the IC50 was below 500 nM.

With `O=C(Nc1ccc(Cl)c(C(F)(F)F)c1)N1[C@H]2CC[C@@H]1c1cncnc1C2` [Compound 42, (5R,8S)-N-(4-Chloro-3-(trifluoromethyl)phenyl)-6,7,8,9-tetrahydro-5H-5,8-epiminocyclohepta[d]pyrimidine-10-carboxamide], the IC50 is below 500 nM.

`O=C(Nc1ccc(C(F)(F)F)c(Cl)c1)N1[C@H]2CC[C@@H]1c1c[nH]c(=O)nc1C2` [Compound 43, (5R,8S)-N-(3-Chloro-4-(trifluoromethyl)phenyl)-2-oxo-3,5,6,7,8,9-hexahydro-2H-5,8-epiminocyclohepta[d]pyrimidine-10-carboxamide]: the IC50 is below 500 nM.

With `O=C(Nc1ccc(Cl)c(Cl)c1)N1[C@H]2CC[C@@H]1c1cncnc1C2` [Compound 52, (5R,8S)-N-(3,4-Dichlorophenyl)-6,7,8,9-tetrahydro-5H-5,8-epiminocyclohepta[d]pyrimidine-10-carboxamide], the IC50 was below 500 nM.

With `O=C(Nc1ccc(Cl)c(Cl)c1)N1[C@H]2CC[C@@H]1c1ccnc(F)c1C2` [Compound 78, (5R,8S)-N-(3,4-Dichlorophenyl)-1-fluoro-6,7,8,9-tetrahydro-5H-5,8-epiminocyclohepta[c]pyridine-10-carboxamide], the IC50 was below 500 nM.

Take `O=C(Nc1cc(Cl)c(Cl)cc1F)N1[C@H]2CC[C@@H]1c1ccnc(F)c1C2` [Compound 79, (5R,8S)-N-(4,5-Dichlroo-2-fluorophenyl)-1-fluoro-6,7,8,9-tetrahydro-5H-5,8-epiminocyclohepta[c]pyridine-10-carboxamide]: the IC50 is below 500 nM.

Consider `O=C(Nc1ccc(C(F)(F)F)c(Cl)c1)N1[C@H]2CC[C@@H]1c1ccnc(F)c1C2` [Compound 85, (5R,8S)-N-(3-Chloro-4-(trifluoromethyl)phenyl)-1-fluoro-6,7,8,9-tetrahydro-5H-5,8-epiminocyclohepta[c]pyridine-10-carboxamide], for which the IC50 is below 500 nM.

Turning to `N#Cc1cc(Cl)c(Cl)cc1NC(=O)N1[C@H]2CC[C@@H]1c1c[nH]c(=O)cc1C2` [Compound 88, (6S,9R)-N-(4,5-Dichloro-2-cyanophenyl)-3-oxo-3,5,6,7,8,9-hexahydro-2H-6,9-epiminocyclohepta[c]pyridine-10-carboxamide], the IC50 was below 500 nM.

Take `O=C(Nc1ccc(Cl)c(Cl)c1)N1[C@H]2CC[C@@H]1c1cnc(F)cc1C2` [Compound 91, (6S,9R)-N-(3,4-Dichlorophenyl)-3-fluoro-6,7,8,9-tetrahydro-5H-6.9-epiminocyclohepta[c]pyridine-10-carboxamide]: the IC50 is below 500 nM.

As for `O=C(Nc1ccc(Cl)c(Cl)c1)N1[C@H]2CC[C@@H]1c1cc[n+]([O-])cc1C2` [Compound 92], the IC50 was below 500 nM.

Regarding `O=C(Nc1cc(Cl)c(C(F)(F)F)cc1F)N1[C@H]2CC[C@@H]1c1c[nH]c(=O)cc1C2` [Compound 93, (6S,9R)-N-(5-Chloro-2-fluoro-4-(trifluoromethyl)phenyl)-3-oxo-3,5,6,7,8,9-hexahydro-2H-6,9-epiminocyclohepta[c]pyridine-10-carboxamide], the IC50 was below 500 nM.

Take `O=C(Nc1cc(Cl)c(Cl)cc1F)N1[C@H]2CC[C@@H]1c1c[nH]c(=O)cc1C2` [Compound 94, (6S,9R)-N-(4,5-Dichloro-2-fluorophenyl)-3-oxo-3,5,6,7,8,9-hexahydro-2H-6,9-epiminocyclohepta[c]pyridine-10-carboxamide]: the IC50 is below 500 nM.

As to `N#Cc1cc(Cl)c(Cl)cc1NC(=O)N1[C@H]2CC[C@@H]1c1ccnc(F)c1C2` [Compound 98, (5R,8S)-N-(4,5-Dichloro-2-cyanophenyl)-1-fluoro-6,7,8,9-tetrahydro-5H-5,8-epiminocyclohepta[c]pyridine-10-carboxamide], the IC50 was below 500 nM.

In the case of `O=C(Nc1cc(Cl)c(C(F)(F)F)cc1F)N1[C@H]2CC[C@@H]1c1ccnc(F)c1C2` [Compound 101, (5R,8S)-N-(5-Chloro-2-fluoro-4-(trifluoromethyl)phenyl)-1-fluoro-6,7,8,9-tetrahydro-5H-5.8-epiminocyclohepta[c]pyridine-10-carboxamide], the IC50 is below 500 nM.

As to `O=C(Nc1ccc(Cl)c(Cl)c1)N1[C@H]2CC[C@@H]1c1c[nH]c(=O)cc1C2` [Compound 103, (6S,9R)-N-(3,4-Dichlorophenyl)-3-oxo-3,5,6,7,8,9-hexahydro-2H-6,9-epiminocyclohepta[c]pyridine-10-carboxamide], the IC50 was below 500 nM.

Regarding `O=C(Nc1ccc(Cl)c(Cl)c1)N1[C@H]2CC[C@@H]1c1c[nH]c(=O)nc1C2` [Compound 106, (5R,8S)-N-(3,4-Dichlorophenyl)-2-oxo-3,5,6,7,8,9-hexahydro-2H-5,8-epiminocyclohepta[d]pyrimidine-10-carboxamide], the IC50 was below 500 nM.

`O=C(Nc1ccc(Cl)c(Cl)c1)N1[C@H]2CC[C@@H]1c1ccncc1C2` [Compound 108, (5R,8S)-N-(3,4-Dichlorophenyl)-6,7,8,9-tetrahydro-5H-5,8-epiminocyclohepta[c]pyridine-10-carboxamide]: the IC50 was below 500 nM.

As for `Cc1cc(Cl)c(Cl)cc1NC(=O)N1[C@H]2CC[C@@H]1c1ccnc(F)c1C2` [Compound 117, (5R,8S)-N-(4,5-Dichloro-2-methylphenyl)-1-fluoro-6,7,8,9-tetrahydro-5H-5,8-epiminocyclohepta[c]pyridine-10-carboxamide], the IC50 was below 500 nM.

The same test, now with this note: 1321N1-hrGPR65 cells, assay pH 7.2, cAMP HTRF; read-out: hGPR65 IC50 (activity class).
For `O=C(Nc1cc(Cl)c(C(F)(F)F)cc1F)N1C2CCC1c1cnncc1C2` (racemic) [Compound 194, (±)-N-(5-Chloro-2-fluoro-4-(trifluoromethyl)phenyl)-6,7,8,9-tetrahydro-5H-5,8-epiminocyclohepta[d]pyridazine-10-carboxamide], the half-inhibitory concentration (IC50) lay in the range of 500 to 5000 nM.

For `O=C(Nc1cc(Cl)c(C(F)(F)F)cc1F)N1C2CCC1c1c(Cl)nnc(Cl)c1C2` (racemic) [Compound 195, (±)-1,4-Dichloro-N-(5-chloro-2-fluoro-4-(trifluoromethyl)phenyl)-6,7,8,9-tetrahydro-5H-5,8-epiminocyclohepta[d]pyridazine-10-carboxamide], the half-inhibitory concentration (IC50) was in the range of 500 to 5000 nM.

With `O=C(Nc1ccc(C(F)(F)F)c(Cl)c1)N1[C@@H]2CC[C@H]1c1cncnc1C2` [Compound 39, (5S,8R)-N-(3-Chloro-4-(trifluoromethyl)phenyl)-6,7,8,9-tetrahydro-5H-5,8-epiminocyclohepta[d]pyrimidine-10-carboxamide], the IC50 was above 5000 nM.

Turning to `O=C(Nc1ccc(C(F)(F)F)c(Cl)c1)N1[C@@H]2CC[C@H]1c1c[nH]c(=O)nc1C2` [Compound 44, (5S,8R)-N-(3-Chloro-4-(trifluoromethyl)phenyl)-2-oxo-3,5,6,7,8,9-hexahydro-2H-5,8-epiminocyclohepta[d]pyrimidine-10-carboxamide], the IC50 was above 5000 nM.

Turning to `O=C(Nc1ccc(Cl)c(Cl)c1)N1[C@@H]2CC[C@H]1c1cncnc1C2` [Compound 53, (5S,8R)-N-(3,4-Dichlorophenyl)-6,7,8,9-tetrahydro-5H-5,8-epiminocyclohepta[d]pyrimidine-10-carboxamide], the IC50 is above 5000 nM.

As for `COc1cc2c(cn1)[C@H]1CC[C@@H](C2)N1C(=O)Nc1ccc(Cl)c(Cl)c1` [Compound 86, (6S,9R)-N-(3,4-Dichlorophenyl)-3-methoxy-6,7,8,9-tetrahydro-5H-6,9-epiminocyclohepta[c]pyridine-10-carboxamide], the IC50 is above 5000 nM.

For the compound `O=C(Nc1ccc(Cl)c(Cl)c1)N1[C@@H]2CC[C@H]1c1c[nH]c(=O)nc1C2` [Compound 105, (5S,8R)-N-(3,4-Dichlorophenyl)-2-oxo-3,5,6,7,8,9-hexahydro-2H-5,8-epiminocyclohepta[d]pyrimidine-10-carboxamide], the half-maximal inhibitory concentration (IC50) was above 5000 nM.

As to `O=C(Nc1ccc(Cl)c(Cl)c1)N1[C@@H]2CC[C@H]1c1ccncc1C2` [Compound 107, (5S,8R)-N-(3,4-Dichlorophenyl)-6,7,8,9-tetrahydro-5H-5,8-epiminocyclohepta[c]pyridine-10-carboxamide], the IC50 was above 5000 nM.

On to `O=C(Nc1ccc(Cl)c(Cl)c1)N1[C@@H]2CC[C@H]1c1ccnc(F)c1C2` [Compound 110, (5S,8R)-N-(3,4-Dichlorophenyl)-1-fluoro-6,7,8,9-tetrahydro-5H-5,8-epiminocyclohepta[c]pyridine-10-carboxamide], for which the IC50 was above 5000 nM.

For the compound `O=C(Nc1ccc(Cl)c(Cl)c1)N1[C@H]2CC[C@@H]1c1cnccc1C2` [Compound 111, (6S,9R)-N-(3,4-Dichlorophenyl)-6,7,8,9-tetrahydro-5H-6,9-epiminocycloheptan[c]pyridine-10-carboxamide], the 50% inhibitory concentration (IC50) was 500 to 5000 nM.

In the case of `O=C(Nc1ccc(Cl)c(Cl)c1)N1[C@@H]2CC[C@H]1c1cnccc1C2` [Compound 112, (6R,9S)-N-(3,4-Dichlorophenyl)-6,7,8,9-tetrahydro-5H-6,9-epiminocyclohepta[c]pyridine-10-carboxamide], the 50% inhibitory concentration (IC50) was above 5000 nM.

As for `O=C(Nc1ccc(Cl)c(Cl)c1)N1[C@@H]2CC[C@H]1[C@H](F)c1ncncc12` [Compound 115, (5R,8S,9S)-N-(3,4-Dichlorophenyl)-9-fluoro-6,7,8,9-tetrahydro-5H-5,8-epiminocyclohepta[d]pyrimidine-10-carboxamide], the IC50 was 500 to 5000 nM.

As to `COc1cc(Cl)c(Cl)cc1NC(=O)N1[C@H]2CC[C@@H]1c1ccnc(F)c1C2` [Compound 118, (5R,8S)—N-(4,5-dichloro-2-methoxyphenyl)-1-fluoro-6,7,8,9-tetrahydro-5H-5,8-epiminocyclohepta[c]pyridine-10-carboxamide], the concentration for half-maximal inhibition (IC50) was 500 to 5000 nM.

The values are drawn from patent publication US20230373989A1, “N-PHENYLAMINOCARBONYL PYRIDINO-, PYRIMIDINO AND BENZO-TROPANES AS MODULATORS OF GPR65” (PATHIOS THERAPEUTICS LIMITED, priority 2020, published 2023).
